Reference: publication PMC8843100, “Development of newly synthesised quinazolinone-based CDK2 inhibitors with potent efficacy against melanoma” (Journal of Enzyme Inhibition and Medicinal Chemistry, 2022)

Tests used:
Test in all cases: NCI-60 single dose screen, sulforhodamine B
Assay type in all cases: cell-based, human
A498 = conditions: Renal cancer A498; single dose 10^−5 M
How it was run: (§1)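 Single dose of 10 µM (from DMSO solution) added one day after seeding; cells incubated a further 2 days, then fixed and stained with sulforhodamine B. Growth inhibition calculated against untreated cells and a time-zero control.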

A549/ATCC = conditions: Non-small cell lung cancer A549/ATCC; single dose 10^−5 M
How it was run: as §1

ACHN = conditions: Renal cancer ACHN; single dose 10^−5 M
How it was run: as §1

BT-549 = conditions: Breast cancer BT-549; single dose 10^−5 M
How it was run: as §1

COLO 205 = conditions: Colon cancer COLO 205; single dose 10^−5 M
How it was run: as §1

EKVX = conditions: Non-small cell lung cancer EKVX; single dose 10^−5 M
How it was run: as §1

HCC-2998 = conditions: Colon cancer HCC-2998; single dose 10^−5 M
How it was run: as §1

HCT-116 = conditions: Colon cancer HCT-116; single dose 10^−5 M
How it was run: as §1

HOP-92 = conditions: Non-small cell lung cancer HOP-92; single dose 10^−5 M
How it was run: as §1

HT29 = conditions: Colon cancer HT29; single dose 10^−5 M
How it was run: as §1

MDA-MB-231/ATCC = conditions: Breast cancer MDA-MB-231/ATCC; single dose 10^−5 M
How it was run: as §1

MDA-MB-435 = conditions: Melanoma MDA-MB-435; single dose 10^−5 M
How it was run: as §1

MOLT-4 = conditions: Leukaemia MOLT-4; single dose 10^−5 M
How it was run: as §1

NCI-H226 = conditions: Non-small cell lung cancer NCI-H226; single dose 10^−5 M
How it was run: as §1

NCI-H23 = conditions: Non-small cell lung cancer NCI-H23; single dose 10^−5 M
How it was run: as §1

NCI-H322M = conditions: Non-small cell lung cancer NCI-H322M; single dose 10^−5 M
How it was run: as §1

NCI-H460 = conditions: Non-small cell lung cancer NCI-H460; single dose 10^−5 M
How it was run: as §1

NCI/ADR-RES = conditions: Ovarian cancer NCI/ADR-RES; single dose 10^−5 M
How it was run: as §1

OVCAR-3 = conditions: Ovarian cancer OVCAR-3; single dose 10^−5 M
How it was run: as §1

OVCAR-8 = conditions: Ovarian cancer OVCAR-8; single dose 10^−5 M
How it was run: as §1

PC-3 = conditions: Prostate cancer PC-3; single dose 10^−5 M
How it was run: as §1

SF-268 = conditions: CNS cancer SF-268; single dose 10^−5 M
How it was run: as §1

SK-MEL-28 = conditions: Melanoma SK-MEL-28; single dose 10^−5 M
How it was run: as §1

SK-MEL-5 = conditions: Melanoma SK-MEL-5; single dose 10^−5 M
How it was run: as §1

SNB-19 = conditions: CNS cancer SNB-19; single dose 10^−5 M
How it was run: as §1

SR = conditions: Leukaemia SR; single dose 10^−5 M
How it was run: as §1

SW-620 = conditions: Colon cancer SW-620; single dose 10^−5 M
How it was run: as §1

T-47D = conditions: Breast cancer T-47D; single dose 10^−5 M
How it was run: as §1

TK-10 = conditions: Renal cancer TK-10; single dose 10^−5 M
How it was run: as §1

U251 = conditions: CNS cancer U251; single dose 10^−5 M
How it was run: as §1

UACC-257 = conditions: Melanoma UACC-257; single dose 10^−5 M
How it was run: as §1

SMILES: O=c1c2ccccc2nc(COc2ccccc2)n1N=CC=Cc1ccccc1 [Compound 6b, 2-(phenoxymethyl)-3-((3-phenylallylidene)amino)quinazolin-4(3H)-one]
- GI% at 10^−5 M (A498): – (– means GI < 10%)
- GI% at 10^−5 M (A549/ATCC): – (– means GI < 10%)
- GI% at 10^−5 M (ACHN): – (– means GI < 10%)
- GI% at 10^−5 M (BT-549): – (– means GI < 10%)
- GI% at 10^−5 M (COLO 205): – (– means GI < 10%)
- GI% at 10^−5 M (EKVX): 13.78%
- GI% at 10^−5 M (HCC-2998): – (– means GI < 10%)
- GI% at 10^−5 M (HCT-116): – (– means GI < 10%)
- GI% at 10^−5 M (HOP-92): – (– means GI < 10%)
- GI% at 10^−5 M (HT29): – (– means GI < 10%)
- GI% at 10^−5 M (MDA-MB-231/ATCC): – (– means GI < 10%)
- GI% at 10^−5 M (MDA-MB-435): – (– means GI < 10%)
- GI% at 10^−5 M (MOLT-4): – (– means GI < 10%)
- GI% at 10^−5 M (NCI-H226): – (– means GI < 10%)
- GI% at 10^−5 M (NCI-H23): – (– means GI < 10%)
- GI% at 10^−5 M (NCI-H322M): – (– means GI < 10%)
- GI% at 10^−5 M (NCI-H460): – (– means GI < 10%)
- GI% at 10^−5 M (NCI/ADR-RES): – (– means GI < 10%)
- GI% at 10^−5 M (OVCAR-3): – (– means GI < 10%)
- GI% at 10^−5 M (OVCAR-8): – (– means GI < 10%)
- GI% at 10^−5 M (PC-3): 10.39%
- GI% at 10^−5 M (SF-268): – (– means GI < 10%)
- GI% at 10^−5 M (SK-MEL-28): – (– means GI < 10%)
- GI% at 10^−5 M (SK-MEL-5): – (– means GI < 10%)
- GI% at 10^−5 M (SNB-19): 17.13%
- GI% at 10^−5 M (SR): 14.34%
- GI% at 10^−5 M (SW-620): – (– means GI < 10%)
- GI% at 10^−5 M (T-47D): – (– means GI < 10%)
- GI% at 10^−5 M (TK-10): – (– means GI < 10%)
- GI% at 10^−5 M (U251): – (– means GI < 10%)
- GI% at 10^−5 M (UACC-257): – (– means GI < 10%)
